The values below come from patent publication US5324832A, “Muscarinic antagonists” (priority 1991, dated 1994).

SMILES strings stand for the structures.

The test system of one assay is muscarinic receptors. The following applies: in words; cited from earlier work.
Assay [1] relates to m1 through m4 muscarinic receptors. Nature of the assay: Displacement of [3H]NMS from muscarinic receptors (m1-m4), subtype not singled out. It counts as binding. The note with it: for affinity / potency at muscarinic receptors: qualitative; for Ki: in the vicinity of, subtype not stated, read-out: Ki, inhibition of [3H]NMS binding. The source says: The analogues were screened in binding assays using membranes from cells or tissues containing primarily single subtypes of m1 through m4 muscarinic receptors. Transfected A9L cells were used as a source of homogeneous populations of m1, m3, and m4 receptors. See Jones, S. V.; Barker, J. L.; Buckley, N. J.; Bonner, T. I; Brann, M. R., Mol. Pharmacol., 1988, 34, 421, which is specifically incorporated by reference herein. Rat heart tissue was the source of m2 muscarinic receptors.
A crude membrane fraction was obtained as follows. Confluent cultures were rinsed three times with phosphate-buffered saline, and lysed in a solution of 2 mM Tris-HCl (pH 7.1) and 1 mM EDTA for 30 min at 2° C. The cells were harvested by scraping and homogenized on a Polytron (10 sec, 75% mix).
(§1) Nuclei were removed in a low speed centrifugation (400 × g, 5 min) and a crude membrane preparation was obtained by centrifugation of the supernatant at 50,000 × g for 20 min. The resulting pellet was resuspended in the lysis buffer and recentrifuged at 50,000 × g for 20 min. Membranes were stored frozen at -70° C. until needed.
(§2) The total volume was 1 mL.
The incubation was terminated by rapid filtration over GF/B filters using a Brandel cell harvester. The filters were washed three times with ice-cold 0.9% NaCl, equilibrated in scintillation counting fluid and counted on a Beckmann LS 5801 liquid scintillation counter at 47% efficiency.
(§3) It was routinely subtracted from the total counts.

The target in the next assay is T1, m1 muscarinic receptors (Rattus norvegicus, UniProt P08482).
T1 sequence (P08482 1-460): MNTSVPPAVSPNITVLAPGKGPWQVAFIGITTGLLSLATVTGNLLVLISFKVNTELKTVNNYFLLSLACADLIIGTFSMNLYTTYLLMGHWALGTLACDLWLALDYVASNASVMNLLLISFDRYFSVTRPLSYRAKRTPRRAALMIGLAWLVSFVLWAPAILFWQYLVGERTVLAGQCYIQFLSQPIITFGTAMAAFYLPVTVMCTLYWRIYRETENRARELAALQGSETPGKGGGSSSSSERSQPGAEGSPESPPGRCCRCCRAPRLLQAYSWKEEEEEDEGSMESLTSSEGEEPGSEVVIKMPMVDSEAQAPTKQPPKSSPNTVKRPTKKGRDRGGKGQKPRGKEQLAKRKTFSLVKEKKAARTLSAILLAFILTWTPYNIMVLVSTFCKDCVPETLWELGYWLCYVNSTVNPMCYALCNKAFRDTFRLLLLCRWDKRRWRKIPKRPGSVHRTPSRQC
Nature of the assay: Inhibition of [3H]NMS binding, membranes of transfected A9L cells expressing m1 receptors. Details: expressed in transfected cells; host or cells: A9L cells (obtained from Dr. M. Brann, NIH). Here is the method: The analogues were screened in binding assays using membranes from cells or tissues containing primarily single subtypes of m1 through m4 muscarinic receptors. Transfected A9L cells were used as a source of homogeneous populations of m1, m3, and m4 receptors. […] Rat heart tissue was the source of m2 muscarinic receptors.
A crude membrane fraction was obtained as follows. Confluent cultures were rinsed three times with phosphate-buffered saline, and lysed in a solution of 2 mM Tris-HCl (pH 7.1) and 1 mM EDTA for 30 min at 2° C.
as §1, §2
The incubation was terminated by rapid filtration over GF/B filters using a Brandel cell harvester.
as §3

With `CCN(CC)CCCCC1CCN(CC(=O)N2c3ccccc3C(=O)Nc3cccnc32)CC1` [AQ-RA 741], the “muscarinic receptor selectivity (literature)” value in the assay on muscarinic receptors was “selective for M2 receptors”.
`CSc1ccc2c(c1)C(=O)Nc1cccnc1N2C(=O)CN1CCN(C)CC1` [Compound 11a]: the “displacement of [3H]NMS from the receptor” value in assay [1] (in words) was “detectable displacement of [^3 H]NMS”.
`CN1CCN(CC(=O)N2c3cc(CO)ccc3C(=O)Nc3cccnc32)CC1` [Compound 16, 5,11-Dihydro-9-hydroxymethyl-11-[(4-methyl-1-piperazinyl)acetyl]-6H-pyrido[2,3-b] [1,4]benzodiazepine-6-one]: in assay [1] (in words), the “displacement of [3H]NMS from the receptor” value was “detectable displacement of [^3 H]NMS”.
As for `CCN1C(=O)c2ccccc2N(C(=O)CN2CCN(C)CC2)c2ncccc21` [Compound 17a, 5-Ethyl-11-hydro-[(4-methyl-1-piperazinyl)acetyl]-6H-pyrido[2,3-b][1,4]-benzodiazepine-6-one], the “affinity / potency at muscarinic receptors” value (shortened to “affinity / potency”) in assay [1] (in words) is “low affinity”.
Regarding `CN1CCN(CC(=O)N2c3ccccc3C(=O)N(CCCCCCC#N)c3cccnc32)CC1` [Compound 17b], in assay [1] (in words), the “affinity / potency” value was “low affinity”.
As a reminder, the Ki is the dissociation constant of the complex between target and ligand, obtained from inhibition or displacement. `C#CCN1CCN(CC(=O)N2c3ccccc3C(=O)Nc3cccnc32)CC1` [Compound 22, 5,11-Dihydro-11-[(4-propargyl-1-piperazinyl)acetyl]-6H-pyrido[2,3-b][1,4]benzodiazepine-6-one]: in assay [1], the Ki was roughly 1000 nM. Moreover, in assay [1] (in words, m1 versus m2 / among subtypes), the receptor subtype selectivity result is given as “non-selective”.
As to `O=C1Nc2cccnc2N(C(=O)CN2CCN(CCO)CC2)c2ccccc21` [Compound 25, 5,11-Dihydro-11-[(4-[2-hydroxyethyl]-1-piperazinyl)acetyl]-6H-pyrido[2,3-b][1,4]benzodiazepine-6-one], the Ki in assay [1] is roughly 1000 nM.
Turning to `NCCN1CCN(CC(=O)N2c3ccccc3C(=O)Nc3cccnc32)CC1` [Compound 27, 5,11-Dihydro-11-[(4-[2-aminoethyl]-1-piperazinyl)acetyl]-6H-pyrido[2,3-b][1,4]benzodiazepine-6-one], the inhibition constant Ki in assay [1] is roughly 1000 nM.
With `CC(=O)NCCN1CCN(CC(=O)N2c3ccccc3C(=O)Nc3cccnc32)CC1` [Compound 28], the Ki in assay [1] is roughly 1000 nM.
With `NCCCCCN1CCN(CC(=O)N2c3ccccc3C(=O)Nc3cccnc32)CC1` [Compound 34c], at m1 muscarinic receptors (in favor of m1 versus m2 receptors), the “selectivity ratio m1 versus m2 receptors” value was determined as 5 fold.
Consider `NCCCCCCCCCN1CCN(CC(=O)N2c3ccccc3C(=O)Nc3cccnc32)CC1` [Compound 34g], for which the “affinity / potency” value in assay [1] (in words) is “higher affinities than the corresponding derivatives with the small neutral acetylamino terminal group (35g and 35h)”.
For the compound `Cc1scc2c1N(C(=O)CN1CCN(CCCCCCCCCCN)CC1)c1ccccc1NC2=O` [Compound 40, n=10, 4,9-Dihydro-3-methyl-4-[[4-(10-aminodecyl)-1-piperazinyl]-acetyl]-10H-thieno[3,4-b][1,5]benzodiazepin-10-one], the Ki on m1 muscarinic receptors (radioligand binding assays, read-out: affinity for m1 receptors (Ki)) worked out at 2.39 nM.
Take `COc1ccccc1CNCCCCCCNCCCCCCCCNCCCCCCNCc1ccccc1OC` [methoctramine]: in the assay with muscarinic receptors, the “muscarinic receptor selectivity (literature)” value is recorded as “m2-selective muscarinic antagonist”.
As to `Cc1scc2c1N(C(=O)CN1CCN(C)CC1)c1ccccc1NC2=O` [telenzepine], the “selectivity ratio / factor for m1 receptors” value on m1 muscarinic receptors (m1 versus m2 receptors) turned out to be 25. In the assay with muscarinic receptors, the “muscarinic receptor selectivity (literature)” value is recorded as “preserve selectivity for m1 receptors” and the “potency as muscarinic antagonist relative to pirenzepine (literature)” value is recorded as “more potent antagonist”.
